Laboratory results: US7307166B1, “Oxpurine nucleosides and their congeners, and acyl, derivatives thereof, for improvement of hematopoiesis” (Wellstat Therapeutics Corporation, priority 1987, dated 2007)

Tests used:
Balb/C female mice [1] = experiment: Hematopoietic recovery after cyclophosphamide in mice (spleen weight, blood cell counts); format: in vivo, mouse; conditions: for recovery of blood cell counts: Ex 58: mice treated with cyclophosphamide, other nonionic surfactants; for total neutrophil counts: 2 μmoles/mouse
FDCPmix cells = experiment: FDCPmix cell proliferation in the presence of IL-3 (MTT assay); format: cell-based
Experimental: The FDCPmix cell line was used as a suitable in vitro model for predicting the effects of hematopoietic factors on pluripotential stem cells. These cells can be maintained in an undifferentiated state in the presence of IL-3 or undergo multi-lineage development in the presence of specific hematopoietic growth factors.
This level of proliferation (100%) served as the control value. Inhibition of proliferation by test compounds was represented as a percent of control.
FDCPmix cells were plated at a density of 5×10^4 cells per well in 96-well plates (5×10^5/ml) using IMDM medium plus 10% fetal bovine serum. […] Test compounds were added at a decreasing concentrations ranging from 10 micrograms/ml down to 1 nanogram/ml. The test compounds included: 3′,5′-O—N^2-tripalmitoyl-2′-deoxyguanosine, 3′,5′-di-O-palmitoyl-2′-deoxy-guanosine, 3′,5′-O—N^2-trioctanoyl-2′-deoxyguanosine, 3′,5′-di-O-octanoyl-2′-deoxyguanosine, and 3′,5′-o-N^2-trioleyl-2′-deoxy-guanosine.

Balb/C female mice [2] = experiment: Hematopoietic recovery after cyclophosphamide in mice (spleen weight, blood cell counts); format: in vivo, mouse; conditions: for spleen weight: Ex 38: day 7 after CP, guanosine 5, acyl derivatives 2.5 μmoles/mouse/day in 0.2% Tween 80 i.p. 6 days, Tween 80 0.2%
Experimental: Twenty-four hours later and each day thereafter for a total of 6 days, mice were given a 0.4 ml i.p. injection of either physiological saline (controls), guanine (5 μmoles/mouse/day), or guanosine (5 μmoles/mouse/day). On day 7 all 10 mice in each of the three groups were bled, and then sacrificed by cervical dislocation. Spleens were removed and weighed, and complete blood cell counts performed.
Twenty-four hours later and each day thereafter for a total of 6 days, mice were given a 0.4 ml i.p injection of either physiological saline (controls), Tween 80 (0.2%), guanosine (5 μmoles/mouse/day in 0.2% Tween 80), or 2.5 μmoles per mouse per day of one of the following acylated derivatives of guanosine in 0.2% Tween 80: triacetylguanosine, octanoylguanosine, lauroylguanosine, or palmitoylguanosine. On day 7 following CP administration all 10 animals from each of the 7 groups were bled, and then sacrificed by cervical dislocation. Spleens were removed and weighed, and complete blood counts performed.
Twenty-four hours later treatment was begun. Mice were given a 0.4 ml i.p. injection of either physiological saline (controls), Tween 80 (0.2%), or palmitoylguanosine (5 μmoles/mouse/day in 0.2% Tween 80). The timing of the treatments was varied within the groups. The control group was given saline on days 1-6. The mice receiving Tween 80 were treated either on days 1-4, 4-6 or 1-6. Palmitoylguanosine-treated mice were treated either on days 1-2, 1-4, 3-5, 4-6 or 1-6. If a group of mice received no Tween 80 or palmitoylguanosine on a given day, saline was administered by i.p. injection. Thus, there were 9 groups of 9 animals in all. On day 7 following CP administration all of the animals were bled and then sacrificed by cervical dislocation. Spleens were removed and weighed, and complete blood cell counts performed.
Twenty-four hours later and each day thereafter for a total of 6 days, mice were given a 0.4 ml i.p. injection of either physiological saline (controls), Tween 80 (0.5%), or one of three different doses of octanoylguanosine (0.5, 2.5, or 5 μmoles/mouse/day in 0.5% Tween 80). On day 7 following CP administration all 9 animals from each of the […] were bled and then sacrificed by cervical dislocation. Spleens were removed and weighed, and complete blood cell counts performed.
Twenty-four hours later and each day thereafter for a total of 6 days, mice were given a 0.4 ml i.p. injection of either physiological saline (controls), Tween 80 (0.5%), or octanoylguanosine (5.0 μmoles/mouse/day in 0.5% Tween 80). On day 7 following CP administration all 10 animals from each of the 3 groups were bled and then sacrificed by cervical dislocation. Spleens were removed, weighed, and fixed in 10% formalin for later histological examination. Complete blood cell counts were performed on the collected blood.
Twenty-four hours later and each day thereafter for a total of 6 days, mice were given a 0.4 ml i.p. injection of either physiological saline (controls), benzoylguanosine (2.5 μmoles/mouse/day in 0.2% Tween 80), or palmitoylguanosine (2.5 μmoles/mouse/day in 0.2% Tween 80). On days 7 and 10 following CP administration 8 animals from each of the 3 groups were bled and then were sacrificed by cervical dislocation. Spleens were removed and weighed, and complete blood cell counts performed.
Twenty four hours later and each day thereafter for a total of 4 or 6 days, mice were given a 0.4 ml i.p. injection of either physiological saline (controls), palmitoyldeoxyinosine (2.5 μmoles/mouse), or palmitoyl-xanthosine (2.5 μmoles/mouse). On days 5 and 7 following CP administration 6 of the 12 animals in each of the 3 groups were bled and then sacrificed by cervical dislocation. Spleens were removed and weighed, and complete blood cell counts performed.

[3] = Dose 10 μg, 48 hours, IL-3 25 units/ml
[4] = Ex 51: day 5 after CP, 2 μmoles/mouse i.p. daily, vs Tween-80
[5] = Ex 48: day 7 after CP, 2.5 μmoles/mouse
[6] = Table 8 (Ex 63): 7 days after CP
[7] = Ex 47: day 7 after CP, 2.5 μmoles/mouse/day
[8] = Ex 45: day 7 after CP, dose-dependent, 0.5-5 μmoles/mouse/day
[9] = Ex 46: day 7 after CP, 5.0 μmoles/mouse/day

## octylphenol-ethylene oxide condensate [Nonidet P-40]
Balb/C female mice [1]
  recovery of blood cell counts: enhanced the recovery

## Triton X-100
Balb/C female mice [1]
  recovery of blood cell counts: enhanced the recovery

## CCCCCCCC(=O)Nc1nc2c(ncn2[C@H]2C[C@H](OC(=O)CCCCCCC)[C@@H](COC(=O)CCCCCCC)O2)c(=O)[nH]1 [TriOctdG, 3′,5′-O—N^2-trioctanoyl-2′-deoxyguanosine]
FDCPmix cells; Dose 10 ng
  Cell proliferation (% of Control): 87 ± 4 % of Control
FDCPmix cells; Dose 39 ng
  Cell proliferation (% of Control): 85 ± 2 % of Control
FDCPmix cells; Dose 156 ng
  Cell proliferation (% of Control): 89 ± 6 % of Control
FDCPmix cells; Dose 625 ng
  Cell proliferation (% of Control): 86 ± 2 % of Control
FDCPmix cells; Dose 2.5 μg
  Cell proliferation (% of Control): 96 ± .1 % of Control
FDCPmix cells; [3]
  Cell proliferation (% of Control): 107 ± 1 % of Control

## CCCCCCCCCCCCCCCC(=O)OC[C@H]1O[C@@H](n2cnc3c(=O)[nH]c(NC(=O)C(C)C)nc32)C[C@@H]1O [NibuPdG, N^2-isobutyryl-5′-O-palmitoyl-2′-deoxyguanosine]
Balb/C female mice [1]; Ex 51: day 5 after CP
  total neutrophil counts: significantly elevated
Balb/C female mice [1]; [4]
  spleen weight: significantly elevated

## CCCCCCCC(=O)OC[C@H]1O[C@@H](n2cnc3c(=O)[nH]c(N)nc32)C[C@@H]1OC(=O)CCCCCCC [DiOctdG, 3′,5′-di-O-octanoyl-2′-deoxyguanosine]
FDCPmix cells; Dose 10 ng
  Cell proliferation (% of Control): 84 ± 2 % of Control
FDCPmix cells; Dose 39 ng
  Cell proliferation (% of Control): 86 ± 1 % of Control
FDCPmix cells; Dose 156 ng
  Cell proliferation (% of Control): 84 ± 6 % of Control
FDCPmix cells; Dose 625 ng
  Cell proliferation (% of Control): 93 ± 1 % of Control
FDCPmix cells; Dose 2.5 μg
  Cell proliferation (% of Control): 78 ± 2 % of Control
FDCPmix cells; [3]
  Cell proliferation (% of Control): 100 ± .3 % of Control

## Tween 20
Balb/C female mice [1]
  recovery of blood cell counts: enhanced the recovery

## CCCCCCCCCCCCCCCC(=O)OC[C@H]1O[C@@H](n2cnc3c(=O)[nH]c(=O)[nH]c32)[C@H](O)[C@@H]1O [palmitoylxanthosine, Palmitoylxanthosine]
Balb/C female mice [2]; [5]
  Neutrophils: significantly increased
  total leukocytes: significantly increased
Balb/C female mice [1]; [5]
  spleen weight: significantly increased

## CCCCCCCCCCCCCCCCCC(=O)Nc1nc2c(ncn2[C@H]2C[C@H](OC(=O)CCCCCCCCCCCCCCCCC)[C@@H](COC(=O)CCCCCCCCCCCCCCCCC)O2)c(=O)[nH]1 [TriSdG, 3′,5′-O-N^2-tristearyl-2′-deoxyguanosine]
Balb/C female mice [1]; [6]
  Neutrophils: 5.4 ± .5 K/μl
  WBC: 7.6 ± .4 K/μl
Balb/C female mice [1]; Table 8 (Ex 63): 7 days after CP, TriPdG 25 mg/kg, others molar equivalent, daily 5 days
  Spleen: 85 ± 9 mg

## CCCCCCCCCCCCCCCC(=O)O[C@H]1C[C@H](n2cnc3c(=O)[nH]c(N)nc32)O[C@@H]1CO [3′-O-palmitoyldeoxyguanosine, 3′-O-Palmitoyl-2′-Deoxyguanosine]
Balb/C female mice [1]; Ex 51: day 5 after CP
  total neutrophil counts: significantly elevated
Balb/C female mice [1]; [4]
  spleen weight: significantly elevated

## CCCCCCCCCCCC(=O)OC[C@H]1O[C@@H](n2cnc3c(=O)[nH]c(N)nc32)[C@H](O)[C@@H]1O [laurolyguanosine, Lauroylguanosine]
Balb/C female mice [2]
  spleen weight: significantly larger spleens

## Nc1nc2c(ncn2[C@@H]2O[C@H](COC(=O)c3ccccc3)[C@@H](O)[C@H]2O)c(=O)[nH]1
Balb/C female mice [2]; Ex 47: day 10 after CP, 2.5 μmoles/mouse/day
  platelet number: significantly greater
Balb/C female mice [1]; [7]
  Neutrophils: significantly elevated
  spleen weight: significantly elevated
Balb/C female mice [1]; Ex 47: day 7 after CP, 2.5 μmoles/mouse/day in 0.2% Tween 80 i.p. 6 days
  total white blood cells: significantly elevated

## CCCCCCCC(=O)OC[C@H]1O[C@@H](n2cnc3c(=O)[nH]c(N)nc32)[C@H](O)[C@@H]1O
Balb/C female mice [2]
  spleen weight: significantly larger spleens
Balb/C female mice [2]; [8]
  total number of neutrophils: significantly increased
Balb/C female mice [2]; [9]
  peripheral white blood cells (WBC): significantly greater
Balb/C female mice [1]; Ex 45: day 7 after CP, 0.5, 2.5 or 5 μmoles/mouse/day in 0.5% Tween 80 i.p. 6 days
  spleen size: significantly larger
Balb/C female mice [1]; [8]
  total number of leukocytes: significantly increased
Balb/C female mice [1]; [9]
  Neutrophils: significantly greater
  lymphopoiesis and myelopoiesis in the spleens (histology): much greater
Balb/C female mice [1]; Ex 46: day 7 after CP, 5.0 μmoles/mouse/day in 0.5% Tween 80, vs saline or Tween 80
  spleen weights: significantly greater
Balb/C female mice [1]; Ex 58: 50 mg/kg in 0.2% Tween 80 vs same dose in 0.02% Tween 80
  neutrophil counts: significantly higher
Balb/C female mice [1]; Ex 58: day 7 after CP, 50 mg/kg/dose in 0.02% and 0.2% Tween 80, vs saline
  neutrophil counts: significantly different from controls

## CCCCCCCCCCCCCCCC(=O)OC[C@H]1O[C@@H](n2cnc3c(=O)[nH]cnc32)[C@H](O)[C@@H]1O [Palmitoylinosine]
Balb/C female mice [1]; Ex 49 heading, 2.5 μmoles/mouse
  Hematopoietic Recovery after cyclophosphamide: Improves

## CC(=O)OC[C@H]1O[C@@H](n2cnc3c(=O)[nH]c(N)nc32)[C@H](OC(C)=O)[C@@H]1OC(C)=O [acetylguanosine, triacetylguanosine]
Balb/C female mice [2]
  spleen weight: significantly larger spleens

## CCCCCCCCCCCCCCCC(=O)OC[C@H]1O[C@@H](n2c(N)nc3c(=O)[nH]c(N)nc32)[C@H](O)[C@@H]1O [palmitoyl-8-aminoguanosine]
Balb/C female mice [1]; Ex 59: days 5 and 7 after CP, 25 mg/kg/day
  spleen weight: significantly elevated
Balb/C female mice [1]; Ex 59: days 5 and 7 after CP, 25 mg/kg/day in 0.2% Tween 80 i.p.
  Neutrophils: significantly elevated

## CCCCCCCC/C=C\CCCCCCCC(=O)Nc1nc2c(ncn2[C@H]2C[C@H](OC(=O)CCCCCCC/C=C\CCCCCCCC)[C@@H](COC(=O)CCCCCCC/C=C\CCCCCCCC)O2)c(=O)[nH]1 [TriOdG, 3′,5′-O-N^2-trioleyl-2′-deoxyguanosine]
FDCPmix cells; Dose 10 ng
  Cell proliferation (% of Control): 92 ± 5 % of Control
FDCPmix cells; Dose 39 ng
  Cell proliferation (% of Control): 91 ± 5 % of Control
FDCPmix cells; Dose 156 ng
  Cell proliferation (% of Control): 92 ± 5 % of Control
FDCPmix cells; Dose 625 ng
  Cell proliferation (% of Control): 98 ± 6 % of Control
FDCPmix cells; Dose 2.5 μg
  Cell proliferation (% of Control): 80 ± 2 % of Control
FDCPmix cells; [3]
  Cell proliferation (% of Control): 110 ± 3 % of Control
Balb/C female mice [1]; Ex 63: day 7 after CP, molar equivalent of 25 mg/kg TriPdG
  lymphocyte counts: increased
Balb/C female mice [1]; [6]
  Platelets: 741 ± 54 K/μl

## polyoxyethylene-10-oleyl ether [Brij 96]
Balb/C female mice [1]
  recovery of blood cell counts: enhanced the recovery

## Tween 40
Balb/C female mice [1]
  recovery of blood cell counts: enhanced the recovery
